Measurements published in patent publication US10087187B2, “Imidazopyridazine derivatives as PI3KB inhibitors” (Janssen Pharmaceutica NV, priority 2014, dated 2018).
Like-named read-outs stand apart in the source and are kept apart here.

Tests used:
[1] = test system: Akt phosphorylated at Thr308 in PC-3 cells; assay: Cellular assay: phosphorylation of Akt (Thr308) in PC-3 cells, MSD ELISA; format: cell-based; details: 60 min incubation with compound, read-out: IC50 pAkt_Thr308
Protocol: (§1) Cellular activity of PI3Kβ inhibitors was determined by quantifying the phosphorylation of Akt in PC-3 cells. Akt phosphorylated at Ser473 and Thr308 were measured using an enzyme-linked immunosorbent assay (ELISA; Meso Scale Discovery (MSD), Gaithersburg, Md.) and specific primary antibodies from MSD.
(§2) On day 1, PC3 cells (ATCC # […]) were seeded into PerkinElmer MW96 plates at 25.000 cells per well, in 75 μl complete culture medium (DMEM (Dulbecco's Modified Eagle's Medium) high glucose, AQmedia™, D0819, Sigma-Aldrich) containing 10% heat inactivated FCS (Fetal Bovine Serum) and incubated at 37° C., 5% CO2 during 24 hours. On day 2, compound or DMSO (dimethyl sulfoxide) (0.3%) was added and cells were further incubated for 60 min at 37° C., 5% CO2 in a total volume of 100 μl of medium.
(§3) The phosphoprotein assay was executed according to vendor instructions in the Phospho-Akt (Ser473) Assay Whole Cell Lysate Kit (MSD # K15100D-3) and the Phospho-Akt (Thr308) Assay Whole Cell Lysate Kit (MSD # K151DYD-3) using the lysis, blocking and wash buffer provided.
(§4) Briefly, at the end of the cell treatment period, media were removed by aspiration and adherent cells were lysed in 50 μl ice-cold lysis buffer. MSD plates are supplied pre-coated with capture antibodies for Phospho-Akt (Ser473 and Thr308). After blocking, lysates from tissue culture plates were added and plates were washed. Then, a solution containing the detection antibody (anti-total Akt conjugated with an electrochemiluminescent compound-MSD Sulfo-tag label) was added. The signals were detected using an MSD SECTOR Imager 6000 and are proportional to the phospho-Akt titres.
(§5) Data were processed. The percentage of inhibition was plotted against the log concentration of test compounds, and the sigmoidal log concentration-effect curve of best fit was calculated by nonlinear regression analysis. From these concentration-response curves, the IC50 values were calculated. Five concentrations were used for curve fitting.

PIK3Cβ_h = PIK3Cβ_h (Homo sapiens (Human), UniProt P42338); assay: KINOMEscan enzyme binding assay, PIK3Cβ; details: DiscoveRx
Protocol: (§6) Enzyme Binding Assays (KINOMEscan®) Kinase enzyme binding affinities of compounds disclosed herein were determined using the KINOMEscan technology performed by DiscoveRx Corporation, San Diego, Calif., USA (www.kinomescan.com). Table A reports the obtained Kd values (nM), with the Kd being the inhibitor binding constant: […]

PIK3Cδ_h = PIK3Cδ_h (Homo sapiens (Human), UniProt O00329); assay: KINOMEscan enzyme binding assay, PIK3Cδ; details: DiscoveRx
Protocol: as §6

PIK3Cα_h = PIK3Cα_h (Homo sapiens (Human), UniProt P42336); assay: KINOMEscan enzyme binding assay, PIK3Cα; details: DiscoveRx
Protocol: (§7) Enzyme Binding Assays (KINOMEscan®) Kinase enzyme binding affinities of compounds disclosed herein were determined using the KINOMEscan technology performed by DiscoveRx Corporation, San Diego, Calif., USA (www.kinomescan.com).

PIK3Cγ_h = PIK3Cγ_h (Homo sapiens (Human), UniProt P48736); assay: KINOMEscan enzyme binding assay, PIK3Cγ; details: DiscoveRx
Protocol: as §7

MTOR_h = MTOR_h (Homo sapiens (Human), UniProt P42345); assay: KINOMEscan enzyme binding assay, MTOR; details: DiscoveRx
Protocol: as §7

[2] = test system: Akt phosphorylated at Ser473 in PC-3 cells; assay: Cellular assay: phosphorylation of Akt (Ser473) in PC-3 cells, MSD ELISA; format: cell-based; details: 60 min incubation with compound, read-out: IC50 pAkt_S473
Protocol: as §1, §2, §3, §4, §5

Sequence of PIK3Cδ_h (O00329 whole entry): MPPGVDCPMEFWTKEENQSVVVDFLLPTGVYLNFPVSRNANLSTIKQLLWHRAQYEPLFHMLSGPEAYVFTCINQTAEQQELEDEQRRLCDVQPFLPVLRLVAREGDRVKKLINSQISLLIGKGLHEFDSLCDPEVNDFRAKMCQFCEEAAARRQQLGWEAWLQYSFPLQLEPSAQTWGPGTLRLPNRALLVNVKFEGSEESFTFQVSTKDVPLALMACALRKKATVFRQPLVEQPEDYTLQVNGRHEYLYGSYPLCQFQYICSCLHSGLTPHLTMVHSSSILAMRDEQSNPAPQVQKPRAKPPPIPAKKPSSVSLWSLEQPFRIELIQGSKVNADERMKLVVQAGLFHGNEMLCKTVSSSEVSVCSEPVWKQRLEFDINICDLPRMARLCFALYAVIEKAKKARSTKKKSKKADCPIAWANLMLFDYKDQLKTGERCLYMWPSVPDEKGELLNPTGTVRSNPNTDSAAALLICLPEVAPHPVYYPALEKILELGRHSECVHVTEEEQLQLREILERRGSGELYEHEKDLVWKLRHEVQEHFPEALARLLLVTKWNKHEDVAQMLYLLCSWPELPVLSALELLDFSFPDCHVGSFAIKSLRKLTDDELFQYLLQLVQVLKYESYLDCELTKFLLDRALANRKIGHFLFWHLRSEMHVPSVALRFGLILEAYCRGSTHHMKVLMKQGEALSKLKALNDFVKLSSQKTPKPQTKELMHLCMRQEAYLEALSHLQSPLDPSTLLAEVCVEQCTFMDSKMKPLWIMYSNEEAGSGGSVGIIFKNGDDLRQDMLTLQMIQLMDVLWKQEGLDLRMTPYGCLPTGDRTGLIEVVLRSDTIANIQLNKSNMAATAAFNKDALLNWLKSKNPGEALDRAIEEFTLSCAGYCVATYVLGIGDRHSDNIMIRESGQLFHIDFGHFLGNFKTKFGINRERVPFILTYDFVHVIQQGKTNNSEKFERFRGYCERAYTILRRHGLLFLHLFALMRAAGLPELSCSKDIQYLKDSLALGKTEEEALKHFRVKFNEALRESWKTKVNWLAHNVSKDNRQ
Sequence of PIK3Cβ_h (P42338 whole entry): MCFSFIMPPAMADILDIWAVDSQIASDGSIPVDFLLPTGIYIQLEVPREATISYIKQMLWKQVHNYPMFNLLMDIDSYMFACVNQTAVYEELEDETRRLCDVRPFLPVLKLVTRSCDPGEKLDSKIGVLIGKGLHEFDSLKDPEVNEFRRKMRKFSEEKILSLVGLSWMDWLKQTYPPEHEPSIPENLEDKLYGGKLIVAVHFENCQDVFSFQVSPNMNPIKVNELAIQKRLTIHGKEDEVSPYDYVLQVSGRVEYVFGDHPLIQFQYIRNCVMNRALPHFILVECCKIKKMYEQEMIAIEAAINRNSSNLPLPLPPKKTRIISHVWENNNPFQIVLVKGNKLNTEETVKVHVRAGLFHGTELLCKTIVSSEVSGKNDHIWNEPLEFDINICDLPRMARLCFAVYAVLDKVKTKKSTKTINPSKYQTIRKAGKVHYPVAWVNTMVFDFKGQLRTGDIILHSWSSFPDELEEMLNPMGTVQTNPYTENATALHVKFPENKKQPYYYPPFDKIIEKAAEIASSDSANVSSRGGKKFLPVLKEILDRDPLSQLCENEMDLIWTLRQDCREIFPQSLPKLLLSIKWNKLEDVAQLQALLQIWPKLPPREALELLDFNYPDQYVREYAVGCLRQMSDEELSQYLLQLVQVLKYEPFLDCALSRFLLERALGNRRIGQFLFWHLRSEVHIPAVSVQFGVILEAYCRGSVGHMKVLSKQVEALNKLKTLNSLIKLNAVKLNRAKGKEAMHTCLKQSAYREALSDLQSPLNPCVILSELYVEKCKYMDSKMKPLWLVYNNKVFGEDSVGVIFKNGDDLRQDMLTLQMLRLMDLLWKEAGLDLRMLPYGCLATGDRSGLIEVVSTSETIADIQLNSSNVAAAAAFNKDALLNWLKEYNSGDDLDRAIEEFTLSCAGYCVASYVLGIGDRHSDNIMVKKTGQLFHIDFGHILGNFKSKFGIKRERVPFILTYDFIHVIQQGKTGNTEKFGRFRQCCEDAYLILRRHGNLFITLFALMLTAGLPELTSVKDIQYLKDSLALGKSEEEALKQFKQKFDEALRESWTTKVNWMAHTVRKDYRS
Sequence of PIK3Cγ_h (P48736 whole entry): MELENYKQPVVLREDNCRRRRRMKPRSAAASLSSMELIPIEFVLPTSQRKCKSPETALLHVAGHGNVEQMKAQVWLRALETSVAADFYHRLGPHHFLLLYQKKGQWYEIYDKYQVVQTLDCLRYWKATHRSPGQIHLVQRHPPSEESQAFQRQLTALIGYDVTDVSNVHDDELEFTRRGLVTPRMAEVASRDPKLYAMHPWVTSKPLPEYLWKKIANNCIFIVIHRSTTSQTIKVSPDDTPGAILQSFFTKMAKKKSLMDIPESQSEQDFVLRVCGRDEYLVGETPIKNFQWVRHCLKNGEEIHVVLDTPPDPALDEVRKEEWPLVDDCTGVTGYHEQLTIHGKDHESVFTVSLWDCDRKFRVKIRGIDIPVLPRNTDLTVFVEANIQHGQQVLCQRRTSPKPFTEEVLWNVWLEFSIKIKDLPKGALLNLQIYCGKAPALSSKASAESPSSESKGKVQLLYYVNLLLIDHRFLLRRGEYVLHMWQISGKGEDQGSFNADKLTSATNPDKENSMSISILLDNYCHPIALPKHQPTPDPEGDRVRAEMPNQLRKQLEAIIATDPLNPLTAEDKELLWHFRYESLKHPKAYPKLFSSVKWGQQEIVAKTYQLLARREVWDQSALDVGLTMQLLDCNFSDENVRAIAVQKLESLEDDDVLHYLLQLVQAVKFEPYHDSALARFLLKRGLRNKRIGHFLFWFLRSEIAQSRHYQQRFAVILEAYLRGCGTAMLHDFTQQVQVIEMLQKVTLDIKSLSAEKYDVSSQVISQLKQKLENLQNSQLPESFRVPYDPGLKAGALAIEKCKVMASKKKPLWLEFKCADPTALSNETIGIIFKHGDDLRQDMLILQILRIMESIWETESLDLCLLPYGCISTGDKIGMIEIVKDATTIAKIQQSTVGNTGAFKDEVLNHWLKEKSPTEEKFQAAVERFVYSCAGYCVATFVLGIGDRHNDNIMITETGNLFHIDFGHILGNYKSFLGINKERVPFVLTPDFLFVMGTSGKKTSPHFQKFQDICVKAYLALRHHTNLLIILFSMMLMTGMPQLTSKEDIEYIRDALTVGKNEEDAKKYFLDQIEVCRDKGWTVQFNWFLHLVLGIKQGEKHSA
Sequence of PIK3Cα_h (P42336 whole entry): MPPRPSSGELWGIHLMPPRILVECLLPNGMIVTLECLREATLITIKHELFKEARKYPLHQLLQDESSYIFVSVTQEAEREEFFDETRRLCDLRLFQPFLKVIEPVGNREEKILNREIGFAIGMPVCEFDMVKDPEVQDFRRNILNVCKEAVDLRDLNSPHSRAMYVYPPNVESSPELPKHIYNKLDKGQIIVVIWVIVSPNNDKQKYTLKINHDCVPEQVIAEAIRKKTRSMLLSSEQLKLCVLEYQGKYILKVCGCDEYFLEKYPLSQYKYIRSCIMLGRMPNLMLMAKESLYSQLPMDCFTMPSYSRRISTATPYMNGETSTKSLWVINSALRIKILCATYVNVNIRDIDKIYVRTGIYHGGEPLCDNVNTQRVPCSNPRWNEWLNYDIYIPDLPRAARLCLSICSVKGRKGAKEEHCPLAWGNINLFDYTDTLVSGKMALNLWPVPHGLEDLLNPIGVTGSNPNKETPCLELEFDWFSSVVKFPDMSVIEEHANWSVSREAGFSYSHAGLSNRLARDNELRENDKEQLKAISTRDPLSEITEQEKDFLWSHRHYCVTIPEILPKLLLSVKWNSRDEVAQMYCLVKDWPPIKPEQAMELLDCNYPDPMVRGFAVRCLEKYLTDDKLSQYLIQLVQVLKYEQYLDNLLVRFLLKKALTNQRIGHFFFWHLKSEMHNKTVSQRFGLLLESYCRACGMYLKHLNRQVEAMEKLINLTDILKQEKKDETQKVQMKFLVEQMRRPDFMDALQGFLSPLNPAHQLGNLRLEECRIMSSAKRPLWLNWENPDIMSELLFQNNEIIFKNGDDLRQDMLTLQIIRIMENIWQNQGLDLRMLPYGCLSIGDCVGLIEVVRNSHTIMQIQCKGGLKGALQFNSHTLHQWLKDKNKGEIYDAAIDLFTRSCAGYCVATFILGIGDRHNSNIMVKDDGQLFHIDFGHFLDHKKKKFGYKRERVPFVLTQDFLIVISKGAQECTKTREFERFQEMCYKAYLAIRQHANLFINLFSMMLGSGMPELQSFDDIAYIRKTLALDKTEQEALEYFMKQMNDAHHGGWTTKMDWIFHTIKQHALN

| Compound | IC50 ([1]; Homo sapiens, PC-3, 1 h) [nM] | Kd (PIK3Cβ_h) [nM] | Kd (PIK3Cδ_h) [nM] | Kd (PIK3Cα_h) [nM] | Kd (PIK3Cγ_h) [nM] | Kd (MTOR_h) [nM] | IC50 ([2]; Homo sapiens, PC-3, 1 h) [nM] | IC50 [1] [nM] | IC50 [2] [nM] |
| --- | --- | --- | --- | --- | --- | --- | --- | --- | --- |
| Cc1cccc(Nc2c(C)nc3c(N)cc(N4CCOCC4)nn23)c1C1CCNCC1 [Compound 60] | ~148 | 0.2 | 16 | 7240 | 9770 | > 30200 | 219 | – | – |
| Cc1c(Cc2c(CO)nc3c(N)cc(N4CCOCC4)nn23)cccc1C(F)(F)F [Compound 14] | – | 1.3 | 207 | > 9180 | > 8880 | > 5690 | – | ~38 | ~63 |
| Cc1c(Cc2c(COC(=O)C(N)Cc3ccccc3)nc3c(N)cc(N4CCOCC4)nn23)cccc1C(F)(F)F (centres unmarked) [Compound 80] | ~195 | 44 | 6030 | > 30200 | > 30200 | > 30200 | 209 | – | – |
| CC(=O)OCc1nc2c(N)cc(N3CCOCC3)nn2c1Cc1cccc(C(F)(F)F)c1C [Compound 61] | 151 | 12 | 1660 | > 30200 | > 30200 | > 30200 | 105 | – | – |
| Cc1nc2c(N)cc(N3CCOCC3)nn2c1Nc1cccc(F)c1CN1CCOCC1 [Compound 63] | 96 | 2.2 | 42 | 4170 | 20000 | 3160 | 138 | – | – |
| Cc1nc2c(N)cc(N3CCOCC3)nn2c1Cc1cccc(C(F)(F)F)c1C [Compound 6] | ~85 | 5 | 955 | > 30200 | > 30200 | > 30200 | 123 | – | – |
| Cc1nc2c(N)cc(N3CCOCC3)nn2c1Nc1cccc(C(F)(F)F)c1CN1CC2(CCS2(=O)=O)C1 [Compound 53] | ~87 | 5 | 73 | 10000 | 19600 | > 30200 | ~176 | – | – |
| Cc1c(Cc2c(CO)nc3c(C(=O)O)cc(N4CCOCC4)nn23)cccc1C(F)(F)F [Compound 22] | > 513 | 1.2 | 48 | 1580 | > 15100 | 10700 | > 513 | – | – |
| Cc1c(Cc2c(COC(=O)C(N)C(C)C)nc3c(N)cc(N4CCOCC4)nn23)cccc1C(F)(F)F (centres unmarked) [Compound 82] | ~123 | 1.3 | 263 | 32400 | > 30200 | 25100 | 380 | – | – |
| Cc1nc2c(N)cc(N3CCOCC3)nn2c1Nc1cccc(F)c1C [Compound 44] | ~11 | 1.5 | 105 | 9330 | 14800 | 5370 | 34 | – | – |
| Cc1c(Cc2c(C(C)O)nc3c(-c4ncc[nH]4)cc(N4CCOCC4)nn23)cccc1C(F)(F)F (centres unmarked) [Compound 31] | 22 | 2.5 | 71 | 2290 | 17000 | > 10000 | 46 | – | – |
| Cc1c(Cc2c(COC(=O)C(C)N)nc3c(N)cc(N4CCOCC4)nn23)cccc1C(F)(F)F (centres unmarked) [Compound 84] | – | 0.5 | 48 | 12000 | 12600 | 7940 | – | 98 | 141 |
| Cc1nc2c(C(=O)O)cc(N3CCOCC3)nn2c1Nc1cccc(C(F)(F)F)c1C [Compound 36] | 195 | 0.9 | 58 | 669 | 4050 | 21700 | ~331 | – | – |
| Cc1nc2c(N)cc(N3CCOCC3)nn2c1Nc1cccc(C(F)(F)F)c1CNC(C)CO (centres unmarked) [Compound 56] | – | 1.2 | 16 | 1710 | 8680 | > 30200 | – | ~5 | ~7 |
| Cc1nc2c(-c3cnc[nH]3)cc(N3CCOCC3)nn2c1Nc1cccc2c1CNCC2 [Compound 42] | > 513 | 0.6 | 5 | 347 | 2290 | 1440 | > 513 | – | – |
| Cc1c(Cc2c(CO)nc3c(N)cc(N4CCOCC4)nn23)cccc1C(F)(F)F [Compound 14c] | ~49 | 1.2 | 194 | > 10000 | > 30200 | 5250 | 50 | – | – |
| Cc1c(Nc2c(CO)nc3c(C(N)=O)cc(N4CCOCC4)nn23)cccc1C(F)(F)F [Compound 37] | 20 | 2.2 | 214 | 575 | 759 | 3240 | 11 | – | – |
| Cc1c(Cc2c(CO)nc3c(-c4ncc[nH]4)cc(N4CCOCC4)nn23)cccc1C(F)(F)F [Compound 20] | ~25 | 2.2 | 85 | 1700 | 4790 | > 10000 | 33 | – | – |
| Cc1cccc(Nc2c(C)nc3c(N)cc(N4CCOCC4)nn23)c1C [Compound 39] | ~43 | 1.1 | 31 | 2570 | 8510 | 4900 | 34 | – | – |
| Cc1c(F)cccc1Cc1c(CO)nc2c(N)cc(N3CCOCC3)nn12 [Compound 93] | 120 | 2.7 | 166 | > 30200 | 3890 | 1900 | 174 | – | – |
